# Reference: ChEMBL document CHEMBL1777689 (Bioorg Med Chem Lett, 2011)
# Active and inactive are the calls of the source. The calls are words filed in the database; no cut-off is given here.
# Legend:
# CYP2D6 = CYP2D6 (Homo sapiens, UniProt P10635); assay: Inhibition of CYP2D6 at 3 uM; assay type: ADME
# CYP2C9 = CYP2C9 (Homo sapiens, UniProt P11712); assay: Inhibition of CYP2C9 at 3 uM; assay type: ADME
# [1] = molecular target: Heat shock protein HSP 90-alpha (Homo sapiens, UniProt P07900)
# [2] = Half life in rat liver microsomes; assay type: ADME, Microsome
# CYP3A4 = CYP3A4 (Homo sapiens, UniProt P08684); assay: Inhibition of CYP3A4 at 3 uM; assay type: ADME
# [3] = Aqueous solubility of the compound; assay type: physicochemical; conditions: buffer
# [4] = Half life in mouse liver microsomes; assay type: ADME, Microsome
# [5] = molecular target: Voltage-gated inwardly rectifying potassium channel KCNH2 (Homo sapiens, UniProt Q12809)
# [6] = Half life in human liver microsomes; assay type: ADME, Microsome
# [7] = molecular target: Proto-oncogene tyrosine-protein kinase Src (Homo sapiens, UniProt P12931); assay: Inhibition of SRC-related membrane-associated tyrosine kinase
# U-87MG ATCC [8] = conditions: Homo sapiens
# [9] = Bioavailability in CD-1 mouse at 10 mg/kg, po; conditions: in vivo
# [10] = Plasma clearance in CD-1 mouse at 2 mg/kg, iv; assay type: ADME, organism-based; design: dose 2 mg/kg, route intravenous
# [11] = molecular target: Tyrosine-protein kinase Fyn (Homo sapiens, UniProt P06241); assay: Inhibition of FYN
# U-87MG ATCC [12] = conditions: Homo sapiens; remark: listed apart in the source
# [13] = AUC (0 to infinity) in CD-1 mouse at 2 mg/kg, iv; assay type: ADME, organism-based; design: time infinity, dose 2 mg/kg, route intravenous; conditions: plasma
# [14] = Half life in CD-1 mouse at 10 mg/kg, po; assay type: ADME, organism-based; design: dose 10 mg/kg, route oral; conditions: in vivo
# [15] = Half life in CD-1 mouse at 2 mg/kg, iv; assay type: ADME, organism-based; design: dose 2 mg/kg, route intravenous; conditions: in vivo
# U-87MG ATCC [16] = conditions: Homo sapiens; remark: listed apart in the source
# [17] = AUC (0 to infinity) in CD-1 mouse at 10 mg/kg, po; assay type: ADME, organism-based; design: time infinity, dose 10 mg/kg, route oral; conditions: plasma
# [18] = Volume of distribution at steady state in CD-1 mouse at 2 mg/kg, iv; assay type: ADME, organism-based; design: dose 2 mg/kg, route intravenous; conditions: in vivo, read-out: Vdss
# 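Wherever EC50 is given: antiproliferative effect on human HCT116 cells, read out by luminescence.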
# Sequence of CYP2C9 (P11712 whole entry): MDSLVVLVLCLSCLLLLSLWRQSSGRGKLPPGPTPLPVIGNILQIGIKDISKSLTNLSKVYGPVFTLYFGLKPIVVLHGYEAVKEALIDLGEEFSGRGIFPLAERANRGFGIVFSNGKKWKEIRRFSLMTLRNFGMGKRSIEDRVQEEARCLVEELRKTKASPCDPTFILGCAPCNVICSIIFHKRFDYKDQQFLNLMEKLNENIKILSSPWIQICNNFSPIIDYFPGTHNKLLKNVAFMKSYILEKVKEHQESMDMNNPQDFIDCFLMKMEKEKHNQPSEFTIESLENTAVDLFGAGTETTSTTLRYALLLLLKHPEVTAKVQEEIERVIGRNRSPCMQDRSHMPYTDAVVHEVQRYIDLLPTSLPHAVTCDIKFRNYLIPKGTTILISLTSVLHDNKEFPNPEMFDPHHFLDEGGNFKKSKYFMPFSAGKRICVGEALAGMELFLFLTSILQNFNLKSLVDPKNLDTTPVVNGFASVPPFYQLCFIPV
# Sequence of CYP3A4 (P08684 whole entry): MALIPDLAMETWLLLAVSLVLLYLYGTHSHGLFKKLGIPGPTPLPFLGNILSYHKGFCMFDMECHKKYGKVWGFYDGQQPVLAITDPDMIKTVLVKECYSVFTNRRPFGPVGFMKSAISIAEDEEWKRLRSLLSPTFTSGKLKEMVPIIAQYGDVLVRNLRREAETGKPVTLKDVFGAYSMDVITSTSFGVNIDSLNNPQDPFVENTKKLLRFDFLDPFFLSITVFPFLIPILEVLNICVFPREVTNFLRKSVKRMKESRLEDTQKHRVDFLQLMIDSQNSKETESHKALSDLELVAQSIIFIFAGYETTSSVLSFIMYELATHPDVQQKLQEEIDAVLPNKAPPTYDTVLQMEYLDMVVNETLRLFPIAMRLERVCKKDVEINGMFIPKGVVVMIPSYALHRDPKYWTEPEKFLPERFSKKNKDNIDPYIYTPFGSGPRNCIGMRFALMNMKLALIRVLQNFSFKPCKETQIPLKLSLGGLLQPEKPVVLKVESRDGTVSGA
# Sequence of CYP2D6 (P10635 whole entry): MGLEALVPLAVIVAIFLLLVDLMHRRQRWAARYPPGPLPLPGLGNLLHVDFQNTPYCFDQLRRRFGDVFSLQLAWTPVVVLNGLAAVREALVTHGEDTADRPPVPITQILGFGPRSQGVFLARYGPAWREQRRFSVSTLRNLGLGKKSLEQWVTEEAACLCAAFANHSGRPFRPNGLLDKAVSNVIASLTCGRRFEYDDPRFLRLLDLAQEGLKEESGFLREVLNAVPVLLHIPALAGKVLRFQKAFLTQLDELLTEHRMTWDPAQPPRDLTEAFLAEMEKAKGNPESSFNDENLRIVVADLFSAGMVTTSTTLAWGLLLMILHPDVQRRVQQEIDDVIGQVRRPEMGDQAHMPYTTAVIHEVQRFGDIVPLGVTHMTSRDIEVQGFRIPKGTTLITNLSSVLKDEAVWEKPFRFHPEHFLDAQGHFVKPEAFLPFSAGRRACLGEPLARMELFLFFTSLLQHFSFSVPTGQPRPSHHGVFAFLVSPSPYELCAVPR
# Sequence of Voltage-gated inwardly rectifying potassium channel KCNH2 (Q12809 whole entry): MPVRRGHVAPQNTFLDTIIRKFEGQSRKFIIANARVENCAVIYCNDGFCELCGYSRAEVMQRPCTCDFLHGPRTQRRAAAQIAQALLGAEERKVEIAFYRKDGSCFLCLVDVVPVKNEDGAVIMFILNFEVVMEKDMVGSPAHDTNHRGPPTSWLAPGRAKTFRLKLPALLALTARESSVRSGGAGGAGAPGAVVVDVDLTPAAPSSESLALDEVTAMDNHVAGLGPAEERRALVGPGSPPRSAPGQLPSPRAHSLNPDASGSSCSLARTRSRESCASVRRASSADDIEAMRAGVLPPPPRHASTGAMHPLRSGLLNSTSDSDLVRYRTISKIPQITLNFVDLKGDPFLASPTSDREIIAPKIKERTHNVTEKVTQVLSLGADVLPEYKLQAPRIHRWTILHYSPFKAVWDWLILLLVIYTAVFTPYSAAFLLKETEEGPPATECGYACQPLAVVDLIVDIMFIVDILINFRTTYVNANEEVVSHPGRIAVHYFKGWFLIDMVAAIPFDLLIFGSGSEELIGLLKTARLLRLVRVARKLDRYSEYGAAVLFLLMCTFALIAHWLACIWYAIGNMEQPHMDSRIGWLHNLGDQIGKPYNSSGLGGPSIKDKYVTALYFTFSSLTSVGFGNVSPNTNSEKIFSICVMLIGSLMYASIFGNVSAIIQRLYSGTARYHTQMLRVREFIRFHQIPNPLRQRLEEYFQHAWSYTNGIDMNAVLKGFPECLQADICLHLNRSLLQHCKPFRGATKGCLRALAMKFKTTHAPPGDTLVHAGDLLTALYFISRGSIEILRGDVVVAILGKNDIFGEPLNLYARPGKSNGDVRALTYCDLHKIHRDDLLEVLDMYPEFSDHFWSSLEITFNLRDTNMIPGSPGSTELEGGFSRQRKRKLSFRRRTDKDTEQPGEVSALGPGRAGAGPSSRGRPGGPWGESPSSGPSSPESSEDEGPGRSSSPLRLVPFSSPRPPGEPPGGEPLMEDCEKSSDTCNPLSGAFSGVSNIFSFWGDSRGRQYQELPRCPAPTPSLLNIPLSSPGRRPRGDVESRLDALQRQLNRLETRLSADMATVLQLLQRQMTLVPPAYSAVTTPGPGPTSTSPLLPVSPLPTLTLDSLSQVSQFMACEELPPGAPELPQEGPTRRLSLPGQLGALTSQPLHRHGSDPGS
# Sequence of Tyrosine-protein kinase Fyn (P06241 whole entry): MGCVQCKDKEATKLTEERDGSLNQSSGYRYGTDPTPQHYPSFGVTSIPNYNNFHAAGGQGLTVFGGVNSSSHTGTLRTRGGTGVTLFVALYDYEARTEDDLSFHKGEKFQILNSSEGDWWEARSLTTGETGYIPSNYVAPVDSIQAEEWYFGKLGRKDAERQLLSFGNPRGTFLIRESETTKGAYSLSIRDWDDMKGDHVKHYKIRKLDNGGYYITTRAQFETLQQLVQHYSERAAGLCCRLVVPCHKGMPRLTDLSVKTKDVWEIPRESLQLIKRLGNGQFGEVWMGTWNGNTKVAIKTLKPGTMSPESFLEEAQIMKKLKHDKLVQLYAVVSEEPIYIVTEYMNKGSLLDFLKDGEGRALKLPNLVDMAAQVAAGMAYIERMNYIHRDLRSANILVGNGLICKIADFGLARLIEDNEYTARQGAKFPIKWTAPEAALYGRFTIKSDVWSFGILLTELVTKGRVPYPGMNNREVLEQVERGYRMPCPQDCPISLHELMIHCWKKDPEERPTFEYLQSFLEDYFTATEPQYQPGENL
# Sequence of Proto-oncogene tyrosine-protein kinase Src (P12931 2-536 limits assumed): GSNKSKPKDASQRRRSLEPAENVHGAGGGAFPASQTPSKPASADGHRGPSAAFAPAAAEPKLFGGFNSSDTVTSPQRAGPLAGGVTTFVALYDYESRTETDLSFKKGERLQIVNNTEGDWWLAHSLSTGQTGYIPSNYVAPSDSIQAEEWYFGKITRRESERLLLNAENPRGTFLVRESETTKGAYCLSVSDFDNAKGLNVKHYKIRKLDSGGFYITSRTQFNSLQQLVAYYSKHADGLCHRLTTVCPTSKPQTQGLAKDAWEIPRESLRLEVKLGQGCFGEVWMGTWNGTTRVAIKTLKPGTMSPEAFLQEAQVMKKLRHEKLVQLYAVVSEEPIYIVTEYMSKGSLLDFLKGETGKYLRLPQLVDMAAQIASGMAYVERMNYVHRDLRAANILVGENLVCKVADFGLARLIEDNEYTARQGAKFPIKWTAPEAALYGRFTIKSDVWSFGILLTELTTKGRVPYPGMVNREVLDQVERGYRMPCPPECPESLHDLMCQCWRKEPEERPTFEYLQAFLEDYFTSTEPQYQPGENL
SMILES,inhibition at 3 µM (CYP2D6),inhibition at 3 µM (CYP2C9),IC50 [1],half-life [2],inhibition at 3 µM (CYP3A4),EC50 (HCT-116),solubility ([3]; read-out: solubility),half-life [4],IC50 [5],half-life [6],other results
Cc1c2c(n3c1CCCN1C[C@@H](N4CCCC4)C[C@@H]1CNc1cc-3ccc1C(N)=O)CC(C)(C)CC2=O,69%,3%,496 nM,5 min,34%,2430 nM,71 µg/mL,,,,
Cc1c2c(n3c1CCCN1CC[C@@H](CNc4cc-3ccc4C(N)=O)C1)CC(C)(C)CC2=O,,,> 5000 nM,,,2970 nM,,,,,
Cc1c2c(n3c1CCCN1CC[C@H](CNc4cc-3ccc4C(N)=O)C1)CC(C)(C)CC2=O,0%,2%,201 nM,21 min,53%,100 nM,> 100 µg/mL,> 30 min,440 nM,23 min,
Cc1c2c(n3c1CCC(=O)N1CCC[C@@H]1CNc1cc-3ccc1C(N)=O)CC(C)(C)CC2=O,,,188 nM,,,310 nM,,,,,
Cc1c2c(n3c1CCCN1CCCC[C@@H]1CNc1cc-3ccc1C(N)=O)CC(C)(C)CC2=O,16%,0%,126 nM,3 min,77%,32 nM,52 µg/mL,27 min,,8 min,
Cc1c2c(n3c1CCCN1CCC[C@@H]1CNc1cc-3ccc1C(N)=O)CC(C)(C)CC2=O,,6%,,6 min,,,2320 µg/mL,,2600 nM,,IC50 [7]: > 50000 nM; inhibition (U-87MG ATCC [8]): Active; bioavailability [9]: 74%; clearance [10]: 19 mL/min/kg; IC50 [11]: 22000 nM; inhibition (U-87MG ATCC [12]): Active; AUC(0-inf) [13]: 1740 ng·h/mL; half-life [14]: 312 min; half-life [15]: 276 min; inhibition (U-87MG ATCC [16]): Active; AUC(0-inf) [17]: 6460 ng·h/mL; Vd [18]: 5.3 L/kg
Cc1c2c(n3c1CCCCN1CCC[C@@H]1CNc1cc-3ccc1C(N)=O)CC(C)(C)CC2=O,2%,0%,301 nM,8 min,67%,232 nM,> 100 µg/mL,11 min,,5 min,
Cc1c2c(n3c1CCCN1CCNC[C@H]1CNc1cc-3ccc1C(N)=O)CC(C)(C)CC2=O,3%,12%,3320 nM,> 30 min,1%,1850 nM,> 100 µg/mL,> 30 min,,> 30 min,
Cc1c2c(n3c1CCCNC(=O)[C@H](C)Nc1cc-3ccc1C(N)=O)CC(C)(C)CC2=O,5%,23%,82 nM,> 30 min,6%,56 nM,> 100 µg/mL,> 30 min,,4 min,
CC(=O)N[C@H]1C[C@@H]2CNc3cc(ccc3C(N)=O)-n3c(c(C)c4c3CC(C)(C)CC4=O)CCCN2C1,,,634 nM,,,2560 nM,,,,,
Cc1c2c(n3c1CCCN1CCC[C@@H](C1)Nc1cc-3ccc1C(N)=O)CC(C)(C)CC2=O,12%,74%,78 nM,8 min,76%,39 nM,16 µg/mL,3 min,3400 nM,2 min,
Cc1c2c(n3c1CCCN1CCCC[C@@H]1[C@H](C)Nc1cc-3ccc1C(N)=O)CC(C)(C)CC2=O,4%,4%,170 nM,7 min,55%,67 nM,35 µg/mL,6 min,1500 nM,3 min,
Cc1c2c(n3c1CCCN1CCOC[C@@H]1CNc1cc-3ccc1C(N)=O)CC(C)(C)CC2=O,0%,39%,96 nM,3 min,71%,34 nM,29 µg/mL,7 min,12500 nM,3 min,
Cc1c2c(n3c1CCN1CCC[C@@H]1CNc1cc-3ccc1C(N)=O)CC(C)(C)CC2=O,6%,0%,883 nM,6 min,32%,460 nM,6 µg/mL,,,,
Cc1c2c(n3c1CCCN1CC[C@@H](C1)Nc1cc-3ccc1C(N)=O)CC(C)(C)CC2=O,23%,25%,982 nM,5 min,70%,671 nM,49 µg/mL,,,,
CC(=O)N1CCN2CCCc3c(C)c4c(n3-c3ccc(C(N)=O)c(c3)NC[C@H]2C1)CC(C)(C)CC4=O,4%,15%,106 nM,3 min,34%,140 nM,> 100 µg/mL,5 min,24400 nM,14 min,
Cc1c2c(n3c1CCCN1C[C@@H](F)C[C@@H]1CNc1cc-3ccc1C(N)=O)CC(C)(C)CC2=O,9%,46%,61 nM,2 min,77%,60 nM,3 µg/mL,5 min,16400 nM,4 min,
Cc1c2c(n3c1CCCN1C[C@H](O)C[C@@H]1CNc1cc-3ccc1C(N)=O)CC(C)(C)CC2=O,33%,9%,153 nM,10 min,64%,192 nM,67 µg/mL,7 min,,3 min,
Cc1c2c(n3c1CCCN1CCC[C@H]1CNc1cc-3ccc1C(N)=O)CC(C)(C)CC2=O,,,,,,1140 nM,,,,,solubility [3]: 66 µg/mL
